For orientation: melting point means the temperature, or range, at which the solid turns liquid. Compound `O=C(Nc1ccc(Cl)c(C(F)(F)F)c1)N1COc2cc(Oc3ccnc(Cl)n3)ccc21` [Example 1, 6-(2-Chloro-pyrimidin-4-yloxy)-benzooxazole-3-carboxylic acid (4-chloro-3-trifluoromethyl-phenyl)-amide] came in with a melting point of 140 to 142 °C. The value for `CS(=O)(=O)Nc1nccc(Oc2ccc3c(C(=O)Nc4ccc(F)c(C(F)(F)F)c4)cccc3c2)n1` [Example 13, 6-(2-Methanesulfonylamino-pyrimidin-4-yloxy)-naphthalene-1-carboxylic acid (4-fluoro-3-trifluoromethyl-Phenyl)-amide] was 246 °C; that for `CC(C)(C)c1ccc(NC(=O)c2cccc3cc(Oc4cc(CO)ncn4)ccc23)cc1` [Example 18A, 6-(6-Hydroxymethyl-pyrimidin-4-yloxy)-naphthalene-1-carboxylic acid (4-tert-butyl-phenyl)-amide] was 202 to 203 °C. For the compound `COCc1cc(Oc2ccc3c(C(=O)Nc4ccc(C)c(C(F)(F)F)c4)cccc3c2)ncn1` [Example 18C, 6-(6-Methoxymethyl-pyrimidin-4-yloxy)-naphthalene-1-carboxylic acid (4-methyl-3-trifluoromethyl-phenyl)-amide], the melting point turned out to be 188 °C. The value for `CCOC(=O)c1cc(Oc2ccc3c(C(=O)Nc4ccc(C(C)(C)C)cc4)cccc3c2)ncn1` [Example 18] was 177 to 178 °C; that for `COc1ccc(-n2nc(C(C)(C)C)cc2NC(=O)c2cccc3cc(Oc4cc(NCCN(C)C)ncn4)ccc23)cc1` [Example 19, 6-[6-(2-Dimethylamino-ethylamino)-pyrimidin-4-yloxy]-naphtalene-1-carboxylic acid [5-tert-butyl-2-(4-methoxy-phenyl)-2H-pyrazol-3-yl]-amide] was 116 to 117 °C.

The values are drawn from patent publication US8133886B2, “Heterobicyclic carboxamides as inhibitors for kinases” (Novartis AG, priority 2006, dated 2012).
